A value given as a limit tells only on which side of the number the result lay.

The target in the assay is T1, human MDM2 (GST-hMDM2 1-188), interaction with biotinylated-p53 (1-83) (Homo sapiens, UniProt Q00987).
T1 construct: Amino acid residues 1-188 of human MDM2 were expressed; made in house; host or cells: Escherichia coli
T1 sequence (Q00987 1-188): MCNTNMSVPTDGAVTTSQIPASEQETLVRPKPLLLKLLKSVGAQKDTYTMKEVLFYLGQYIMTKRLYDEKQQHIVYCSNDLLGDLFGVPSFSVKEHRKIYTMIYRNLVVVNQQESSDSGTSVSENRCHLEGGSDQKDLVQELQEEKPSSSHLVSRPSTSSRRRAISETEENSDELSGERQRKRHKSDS
Kind of assay: improved HTRF assay (HTRF2 assay), inhibition of HDM2-p53 interaction. Format: binding. The note with it: 0.2 nM GST-hMDM2, 0.5 nM biotinylated-p53, 100 mM KF. The method in brief: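 Time-resolved fluorescence (HTRF) read after >4 h equilibration with SA-XLent/anti-GST cryptate/KF detection reagents. Reaction: compound plus GST-hMDM2 for 20 min at room temperature, then E. coli-expressed biotinylated p53 residues 1-83 for 60 min, 2% DMSO final. Inhibition expressed versus nutlin-3.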
Broadly, the IC50 is the concentration that inhibits the measured activity by half. In turn, `CC[C@@H]([C@H](C)S(=O)(=O)C(C)(C)C)N1C(=O)[C@@H](CC(=O)O)O[C@H](c2cccc(Cl)c2)[C@H]1c1ccc(Cl)cc1` (single isomer, unassigned) [Example 419] displayed an IC50 of 4 nM.
Consider `CC[C@@H]([C@H](C)S(=O)(=O)C(C)(C)C)N1C(=O)[C@@H](CC(=O)O)O[C@H](c2cccc(Cl)c2)[C@H]1c1ccc(Cl)cc1` (single isomer, unassigned) [Example 420], for which the IC50 came out at 12 nM.
Under `CC(C)S(=O)(=O)[C@H]1CCC[C@@H]1N1C(=O)[C@@H](CC(=O)O)O[C@H](c2cccc(Cl)c2)[C@H]1c1ccc(Cl)cc1` (single isomer, unassigned) [Example 421] stands 13600 nM; under `CC(C)S(=O)(=O)[C@H]1CCC[C@@H]1N1C(=O)[C@@H](CC(=O)O)O[C@H](c2cccc(Cl)c2)[C@H]1c1ccc(Cl)cc1` (single isomer, unassigned) [Example 422], 3 nM.
Under `C[C@@H](CS(=O)(=O)C(C)(C)C)N1C(=O)[C@@H](CC(=O)O)O[C@H](c2cc(F)cc(Cl)c2)[C@H]1c1ccc(Cl)c(F)c1` (single isomer, unassigned) [Example 423, 2-((2R,5R,6R)-4-((S)-1-(tert-Butylsulfonyl)propan-2-yl)-5-(4-chloro-3-fluorophenyl)-6-(3-chloro-5-fluorophenyl)-3-oxomorpholin-2-yl)acetic acid or 2-((2S,5R,6R)-4-((S)-1-(tert-butylsulfonyl)propan-2-yl)-5-(4-chloro-3-fluorophenyl)-6-(3-chloro-5-fluorophenyl)-3-oxomorpholin-2-yl)acetic acid] stands 1 nM.
Under `C[C@@H](CS(=O)(=O)C(C)(C)C)N1C(=O)[C@@H](CC(=O)O)O[C@H](c2cc(F)cc(Cl)c2)[C@H]1c1ccc(Cl)c(F)c1` (single isomer, unassigned) [Example 424, 2-((2R,5R,6R)-4-((S)-1-(tert-Butylsulfonyl)propan-2-yl)-5-(4-chloro-3-fluorophenyl)-6-(3-chloro-5-fluorophenyl)-3-oxomorpholin-2-yl)acetic acid or 2-((2S,5R,6R)-4-((S)-1-(tert-butylsulfonyl)propan-2-yl)-5-(4-chloro-3-fluorophenyl)-6-(3-chloro-5-fluorophenyl)-3-oxomorpholin-2-yl)acetic acid] stands 3 nM.
With `CC[C@@H](CS(=O)(=O)C(C)(C)C)N1C(=O)[C@@H](CC(=O)O)O[C@H](c2cc(F)cc(Cl)c2)[C@H]1c1ccc(Cl)c(F)c1` (single isomer, unassigned) [Example 425, 2-((2R,5R,6R)-4-((S)-1-(tert-Butylsulfonyl)butan-2-yl)-5-(4-chloro-3-fluorophenyl)-6-(3-chloro-5-fluorophenyl)-3-oxomorpholin-2-yl)acetic acid or 2-((2S,5R,6R)-4-((S)-1-(tert-butylsulfonyl)butan-2-yl)-5-(4-chloro-3-fluorophenyl)-6-(3-chloro-5-fluorophenyl)-3-oxomorpholin-2-yl)acetic acid], the IC50 was less than 1 nM.
Regarding `CC[C@@H](CS(=O)(=O)C(C)(C)C)N1C(=O)[C@@H](CC(=O)O)O[C@H](c2cc(F)cc(Cl)c2)[C@H]1c1ccc(Cl)c(F)c1` (single isomer, unassigned) [Example 426, 2-((2R,5R,6R)-4-((S)-1-(tert-Butylsulfonyl)butan-2-yl)-5-(4-chloro-3-fluorophenyl)-6-(3-chloro-5-fluorophenyl)-3-oxomorpholin-2-yl)acetic acid or 2-((2S,5R,6R)-4-((S)-1-(tert-butylsulfonyl)butan-2-yl)-5-(4-chloro-3-fluorophenyl)-6-(3-chloro-5-fluorophenyl)-3-oxomorpholin-2-yl)acetic acid], the IC50 came out at 1 nM.
The same measure for `CC[C@@H](CS(=O)(=O)C(C)(C)C)N1C(=O)[C@@H](CC(=O)OC)O[C@H](c2cccc(Cl)c2)[C@H]1c1ccc(Cl)cc1` [Example 149, Methyl 2-((2R,5R,6R)-4-((S)-1-(tert-butylsulfonyl)butan-2-yl)-6-(3-chlorophenyl)-5-(4-chlorophenyl)-3-oxomorpholin-2-yl)acetate]: 30 nM; for `CC[C@@H](CS(=O)(=O)C(C)(C)C)N1C(=O)[C@H](CC(=O)OC)O[C@H](c2cccc(Cl)c2)[C@H]1c1ccc(Cl)cc1` [Example 150, Methyl 2-((2S,5R,6R)-4-((S)-1-(tert-butylsulfonyl)butan-2-yl)-6-(3-chlorophenyl)-5-(4-chlorophenyl)-3-oxomorpholin-2-yl)acetate]: 21 nM.
In the case of `CC[C@@H](CS(=O)(=O)C(C)(C)C)N1C(=O)[C@H](CCO)O[C@H](c2cccc(Cl)c2)[C@H]1c1ccc(Cl)cc1` [Example 151, (2S,5R,6R)-4-((S)-1-(tert-butylsulfonyl)butan-2-yl)-6-(3-chlorophenyl)-5-(4-chlorophenyl)-2-(2-hydroxyethyl)morpholin-3-one], it took 22 nM to reach half-maximal inhibition (IC50).
On to `CC[C@@H](CS(=O)(=O)C(C)(C)C)N1C(=O)[C@@H](CCO)O[C@H](c2cccc(Cl)c2)[C@H]1c1ccc(Cl)cc1` [Example 152, (2R,5R,6R)-4-((S)-1-(tert-butylsulfonyl)butan-2-yl)-6-(3-chlorophenyl)-5-(4-chlorophenyl)-2-(2-hydroxyethyl)morpholin-3-one], for which the IC50 came out at 37 nM.
Regarding `CC[C@@H](CS(=O)(=O)C(C)(C)C)N1C(=O)[C@@H](CCOC)O[C@H](c2cccc(Cl)c2)[C@H]1c1ccc(Cl)cc1` [Example 153, (2R,5R,6R)-4-((S)-1-(tert-butylsulfonyl)butan-2-yl)-6-(3-chlorophenyl)-5-(4-chlorophenyl)-2-(2-methoxyethyl)morpholin-3-one], half-maximal inhibition (IC50) was put at 59 nM.
For the compound `C[C@@H](CSC(C)(C)C)N1C(=O)CO[C@H](c2cccc(Cl)c2)[C@H]1c1ccc(Cl)cc1` [Example 222, (5R,6R)-4-((S)-1-(tert-butylthio)propan-2-yl)-6-(3-chlorophenyl)-5-(4-chlorophenyl)morpholin-3-one], 170 nM corresponded to half-maximal inhibition (IC50).
As to `CC(C)(C)S(=O)(=O)[C@H]1CCCC[C@@H]1N1C(=O)[C@@H](CC(=O)O)O[C@H](c2cccc(Cl)c2)[C@H]1c1ccc(Cl)cc1` [Example 249, 2-((2R,5R,6R)-4-((1S,2S)-2-(tert-butylsulfonyl)cyclohexyl)-6-(3-chlorophenyl)-5-(4-chlorophenyl)-3-oxomorpholin-2-yl)acetic acid], the IC50 stood at 4 nM.
`Cc1ccc([C@H]2O[C@H](CC(=O)O)C(=O)N([C@H](CS(=O)(=O)C(C)(C)C)C3CC3)[C@@H]2c2ccc(Cl)cc2)cc1Cl` [Example 327, 2-((2R,5R,6R)-4-((S)-2-(tert-Butylsulfonyl)-1-cyclopropylethyl)-6-(3-chloro-4-methylphenyl)-5-(4-chlorophenyl)-3-oxomorpholin-2-yl)acetic acid] displayed an IC50 of 51 nM.
`CC[C@@H](CS(=O)(=O)C(C)(C)C)N1C(=O)[C@H](CC(=O)NC#N)O[C@H](c2cccc(Cl)c2)[C@H]1c1ccc(Cl)cc1` [Example 344, 2-((2S,5R,6R)-4-((S)-1-(tert-Butylsulfonyl)butan-2-yl)-6-(3-chlorophenyl)-5-(4-chlorophenyl)-3-oxomorpholin-2-yl)-N-cyanoacetamide] had an IC50 of less than 1 nM.

The values are drawn from patent US9376425B2, “Heterocyclic compounds as MDM2 inhibitors for the treatment of cancer” (AMGEN INC., priority 2011, dated 2016).
